Laboratory results reported in the supplement of paper PMC5908809.

Experiments:
[1] = system: normal NK cells expanded with K562-aAPC; test: percent inhibition of viability; higher = more inhibition; conditions: 72 h, IL-2 2.5 ng/mL
Method: (§1)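 Drug sensitivity and resistance testing on K562-aAPC-expanded normal NK cells: 5 concentrations (10-fold steps over a 10,000-fold range), 72 h at 37 °C, viability by CellTiter-Glo normalised to DMSO and benzethonium chloride controls; DSS from the fitted curve.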

[2] = system: normal primary NK cells, pool 3 (3 donors) (IL-2 2.5 ng/mL); test: as above; conditions: 72 h
[3] = system: KHYG-1 (IL-2 2.5 ng/mL); test: as above; conditions: 72 h
[4] = system: NK-92 (IL-2 2.5 ng/mL); test: as above; conditions: 72 h
[5] = system: normal primary NK cells, pool 2 (3 donors) (IL-2 2.5 ng/mL); test: as above; conditions: 72 h
[6] = system: YT (IL-2 2.5 ng/mL); test: as above; conditions: 72 h
[7] = system: KAI3 (IL-2 2.5 ng/mL); test: as above; conditions: 72 h
[8] = system: normal primary NK cells, pool 1 (3 donors) (IL-2 2.5 ng/mL); test: as above; conditions: 72 h
[9] = system: SNK-6 (IL-2 2.5 ng/mL); test: as above; conditions: 72 h
[10] = system: IMC-1 (IL-2 20 ng/mL); test: as above; conditions: 72 h
[11] = system: DERL-7 (IL-2 2.5 ng/mL); test: as above; conditions: 72 h
[12] = system: NKL (IL-2 2.5 ng/mL); test: as above; conditions: 72 h
[13] = system: normal primary NK cells, pool 1 (3 donors), resting (IL-2 0 ng/mL); test: as above; conditions: 72 h
[14] = system: NK-YS (IL-2 2.5 ng/mL); test: as above; conditions: 72 h
[15] = system: normal NK cells expanded with K562-aAPC; test: drug sensitivity score (DSS) (DSS units); higher = more sensitive; extreme values may be limits of the assay; conditions: 72 h; IL-2 2.5 ng/mL
Method: as §1

[16] = system: normal primary NK cells, pool 3 (3 donors) (IL-2 2.5 ng/mL); test: as above; conditions: 72 h
[17] = system: KHYG-1 (IL-2 2.5 ng/mL); test: as above; conditions: 72 h
[18] = system: NK-92 (IL-2 2.5 ng/mL); test: as above; conditions: 72 h
[19] = system: normal primary NK cells, pool 2 (3 donors) (IL-2 2.5 ng/mL); test: as above; conditions: 72 h
[20] = system: YT (IL-2 2.5 ng/mL); test: as above; conditions: 72 h
[21] = system: KAI3 (IL-2 2.5 ng/mL); test: as above; conditions: 72 h
[22] = system: normal primary NK cells, pool 1 (3 donors) (IL-2 2.5 ng/mL); test: as above; conditions: 72 h
[23] = system: SNK-6 (IL-2 2.5 ng/mL); test: as above; conditions: 72 h
[24] = system: IMC-1 (IL-2 20 ng/mL); test: as above; conditions: 72 h
[25] = system: DERL-7 (IL-2 2.5 ng/mL); test: as above; conditions: 72 h
[26] = system: NKL (IL-2 2.5 ng/mL); test: as above; conditions: 72 h
[27] = system: normal primary NK cells, pool 1 (3 donors), resting (IL-2 0 ng/mL); test: as above; conditions: 72 h
[28] = system: NK-YS (IL-2 2.5 ng/mL); test: as above; conditions: 72 h

Cc1cc(Nc2cc(CN3CCOCC3)c3nc(C)c(Cc4ccc(Cl)cc4F)n3n2)n[nH]1 [Gandotinib] (max concentration tested 10000 nM)
percent inhibition of viability [%]
Conditions	1 nM	10 nM	100 nM	1000 nM	10000 nM
[1]	-0.65	3.87	25.1	89.6	70.5
[2]	-10.9	-0.67	2.59	43.9	65.9
[3]	0.26	6.43	45.7	106	95.9
[4]	4.87	11.2	20.5	86.5	96.2
[5]	-11.3	-5.04	11.2	50.9	52.6
[6]	1.95	-0.29	5.49	77.5	94.8
[7]	8.43	12.9	45.1	92.9	82.2
[8]	-11.8	-7.74	18.1	58.3	79.4
[9]	6.62	7.51	9.98	95	87.1
[10]	-4.23	-6.96	-22.2	36.1	99.6
[11]	2.64	12.5	31.3	96.2	100
[12]	-9.53	-6.03	52.5	77.8	71.9
[13]	-20.1	-7.1	2.98	-45.4	20.2
[14]	1.47	2.64	22.9	77.5	93.6

Conditions	drug sensitivity score
[15]	20
[16]	8.97
[17]	23.9
[18]	18.3
[19]	11.1
[20]	15
[21]	22
[22]	13
[23]	18.8
[24]	10.4
[25]	21
[26]	20.4
[27]	0.18
[28]	17.1

CCN1CCN(c2ccc(Nc3cc(N(C)C(=O)Nc4c(Cl)c(OC)cc(OC)c4Cl)ncn3)cc2)CC1 [NVP-BGJ398] (max concentration tested 1000 nM)
percent inhibition of viability [%]
Conditions	0.1 nM	1 nM	10 nM	100 nM	1000 nM
[1]	-0.93	-6.78	-4.9	4.74	2.68
[2]	-6.2	7.43	9.02	0.22	7.33
[3]	-6.77	-2.35	-1.84	3.9	22.1
[4]	-11.4	1.56	9.63	19.4	17.8
[5]	-8.08	5.48	12.3	1.57	12.6
[6]	-2.36	0.47	-1.37	5.31	11.7
[7]	-2.53	-7.26	-1.75	2.95	5.14
[8]	4.34	9.33	11.6	4.78	12.1
[9]	-1.53	-0.29	-14.4	-13.1	-6.84
[10]	-7.18	3.41	-1.12	4.31	-1.42
[11]	2.66	5.38	2.13	4.05	8.48
[12]	-0.94	-7.47	0.95	4.24	15
[13]	-6.47	4.3	1.93	4.77	19.9
[14]	-4.6	-4.02	-4.62	-2.71	6.5

Conditions	drug sensitivity score
[15]	0
[16]	0
[17]	1.3
[18]	3.27
[19]	0.05
[20]	0.2
[21]	0
[22]	0
[23]	0
[24]	0
[25]	0
[26]	0.59
[27]	1.18
[28]	0

CN1CC[C@H](c2c(O)cc(O)c3c(=O)cc(-c4ccccc4Cl)oc23)[C@H](O)C1 [Alvocidib] (max concentration tested 10000 nM)
percent inhibition of viability [%]
Conditions	1 nM	10 nM	100 nM	1000 nM	10000 nM
[1]	-1.75	-1.8	2.89	100	101
[2]	-16.4	-9.75	22.2	97.3	98.7
[3]	3.43	-0.43	31.6	103	106
[4]	1.2	-10.9	40.2	99.5	104
[5]	-15.2	-10.6	25.6	93.8	95.7
[6]	1.4	6.09	33.3	101	104
[7]	-3.44	8.97	69.4	99.3	104
[8]	-0.02	-24.2	17.8	96.8	97.3
[9]	16.1	27.2	40	54.8	50.7
[10]	-6.84	-2.57	-23.3	98.5	100
[11]	-0.06	-8.43	20	99.6	101
[12]	-9.8	1.18	36	101	109
[13]	6.48	-25.6	-4.81	88.6	91.6
[14]	-0.27	3.87	33.1	98.8	103

Conditions	drug sensitivity score
[15]	18.4
[16]	21.3
[17]	22.6
[18]	23.4
[19]	21.1
[20]	22.6
[21]	26.8
[22]	20.4
[23]	18.3
[24]	16.6
[25]	21.2
[26]	23
[27]	15.8
[28]	22.1

O=C(O)c1ccc(O)c2ncccc12 [IOX-1] (max concentration tested 100000 nM)
percent inhibition of viability [%]
Conditions	10 nM	100 nM	1000 nM	10000 nM	100000 nM
[1]	2.28	-1.61	-3.75	-2.77	37.3
[2]	-7.55	-4.61	-5.18	1.2	19.5
[3]	-4.24	1.11	-3.63	4.25	97.2
[4]	-6.93	3.17	-9.38	5.58	84.7
[5]	-7.65	2.85	-9.5	-2.84	18.6
[6]	-3.65	-2.89	-3.48	-1.62	93.9
[7]	-3.64	-1.76	6.25	18.8	90.3
[8]	-3.62	-13.1	0.64	8.14	36.8
[9]	5.81	6.03	15.1	13.8	96.1
[10]	-3.09	-5.78	-3.15	-12.9	98.3
[11]	3.2	6.07	1.59	7.49	60.9
[12]	1.44	-6.7	-0.16	3.16	91.7
[13]	-3.86	-11	-13.3	21.7	44.1
[14]	-2.09	1.71	-3.7	-0.87	90

Conditions	drug sensitivity score
[15]	1.59
[16]	0.69
[17]	5.99
[18]	5.53
[19]	0.36
[20]	5.1
[21]	8.02
[22]	3.07
[23]	7.64
[24]	4.66
[25]	4.57
[26]	5.52
[27]	5.03
[28]	4.95

O=C(O)c1ccc(Nc2ncc3c(n2)-c2ccc(Cl)cc2C(c2c(F)cccc2F)=NC3)cc1 [MLN-8054] (max concentration tested 10000 nM)
percent inhibition of viability [%]
Conditions	1 nM	10 nM	100 nM	1000 nM	10000 nM
[1]	0.34	1.46	-1.49	39.7	57.7
[2]	5.09	2.04	1	3.1	12.9
[3]	4.03	6.1	20	64.1	79
[4]	7.92	3.31	17.5	33.8	65.2
[5]	1.69	-1.38	2.04	-0.41	21.9
[6]	4.9	5.88	21	51.3	62
[7]	5.5	5.3	20.2	51.7	71.4
[8]	-5.64	-11.5	-5.12	-17.1	3.94
[9]	-1.52	0.61	53.3	78.6	81.5
[10]	2.52	4.23	18.1	27.9	87.8
[11]	-1.42	-2.27	-2.98	42.2	63.5
[12]	12.4	12.3	30.5	66.5	36.9
[13]	19.2	-7.07	0.26	-14.7	13.3
[14]	5.25	3.3	40.5	74	86.5

Conditions	drug sensitivity score
[15]	7.83
[16]	0.29
[17]	14.3
[18]	8.69
[19]	0.7
[20]	11.9
[21]	12.2
[22]	0
[23]	21.2
[24]	7.96
[25]	8.47
[26]	14
[27]	0.03
[28]	19
